From patent US20210317099A1, “SAFER, POTENT, AND FAST ACTING ANTIMICROBIAL AGENTS” (Purdue Research Foundation, priority 2020, published 2021)
≈ marks a conversion by molar mass, not a printed value. Read-outs that look alike come from different tables or passages of the source.

Legend:
[1] = system: total proteases production in MRSA USA300; experiment: Inhibition of staphylococcal total proteases production, skimmed milk method; assay type: cell-based, Staphylococcus aureus; details: MRSA USA300, 0.25×MIC, untreated = 100%
Method: The modified skimmed milk method was utilized to investigate the protease inhibitory activities of BHS compounds as described previously. In brief, overnight culture of MRSA300 in TSB, with and without subinhibitory concentrations of compounds (in triplicate), was centrifuged at 14000×g for 10 minutes. Then, a total volume of 500 μL of culture supernatant was incubated with 1 mL skimmed milk (1.25%) at 37° C. for 1 hour. Afterwards, the OD600 was measured to indicate the degree of clearance of skimmed milk. Higher OD values indicate lower proteolytic activity and greater protease inhibitory activity.
FIG. 4. Influence of BHS compounds on the staphylococcal total protease production. OD600 was measured following overnight culturing of MRSA USA300 in TSB in presence and absence of 0.25×MIC of 148, 149, 155, 158 and vancomycin followed by incubation of supernatants with skim milk for 1 hour at 37° C. The Data are presented as percent production (means±standard deviation). DMSO (the solvent for the compounds that served as a negative control). Vancomycin served as the control antibiotic. The values represent an average (means±standard deviation) of four samples analyzed for each compound/antibiotic. Error bars represent standard deviation values. An asterisk (*) denotes statistical significance (P<0.05) between results for compounds 148, 149, 155, 158 and vancomycin analyzed via unpaired t test ([…]).

[2] = In vitro cytotoxicity, MTS assay; assay type: cell-based, human; details: human, Caco-2 cells; Caco-2, two hours incubation, MTS; read-out: 50% cytotoxic concentration (CC50)
Method: Compounds 144, 148, 151, 155, 158, and 187 were assayed (at concentrations of 16, 32, and 64 μg/mL) against a human colorectal adenocarcinoma (Caco-2) cell to determine the potential toxic effect to mammalian cells in vitro. Briefly, cells were cultured in Dulbecco's Modified Eagle Medium (DMEM) supplemented with 10% fetal bovine serum (FBS), non-essential amino acids (1×), penicillin-streptomycin at 37° C. in presence of 5% CO2. Control cells received DMSO alone at a concentration equal to that in drug-treated wells. The cells were incubated with the compounds (in triplicate) in a 96-well plate at 37° C. with 5% CO2 for two hours. This was followed by the subsequent addition of the assay reagent MTS 3-(4,5-dimethylthiazol-2-yl)-5-(3-carboxymethoxyphenyl)-2-(4-sulfophenyl)-2H-tetrazolium) (Promega, Madison, Wis., USA) and the plate was incubated for three to four hours. Absorbance readings (at OD490) were recorded using a kinetic microplate reader (Molecular Devices, Sunnyvale, Calif., USA). The quantity of viable cells after treatment with each compound was expressed as a percentage of the viability of DMSO-treated control cells (average of triplicate wells±standard deviation).
FIG. 3. Analyzing the toxicity of 144, 148, 151, 155, 158, and 187 compounds (tested in triplicates at 16, 32 and 64 μg/mL) against human colorectal cells (Caco-2) using the MTS 3-(4,5-dimethylthiazol-2-yl)-5-(3-carboxymethoxyphenyl)-2-(4-sulfophenyl)-2H-tetrazolium) assay. Results are presented as percent viable cells relative to DMSO (negative control) to determine a baseline measurement for the cytotoxic impact of each compound. The absorbance values represent an average of three samples analyzed for each compound. Error bars represent standard deviation values. The data were analyzed via a two-way ANOVA with post-hoc Dunnett's test for multiple comparisons. An asterisk (*) denotes statistical significance (P<0.05) between results for compounds and DMSO.

[3] = system: Staphylococcus aureus NRS384 (MRSA USA300); experiment: Initial MIC screening, broth microdilution (CLSI); assay type: cell-based; details: for potency compared with control antibiotic: MRSA USA300, Table 1 assay; for MIC: Staphylococcus aureus NRS384 (MRSA USA300), broth microdilution, visual reading
Outline: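 MRSA USA300 grown 24 h at 37 °C on tryptic soy agar, then adjusted to 5×10^5 CFU/ml in cation-adjusted Mueller-Hinton broth. Compounds serially diluted 64 to 0.5 μg/mL per CLSI broth microdilution; MIC recorded.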

[4] = system: MRSA USA 400; experiment: Time-kill assay; assay type: cell-based, Staphylococcus aureus; details: 5×MIC; for time required for complete eradication of the bacterial count: MRSA USA 400, 24-hour incubation
Method: In order to the mode of killing of methylene lactone compounds, a time kill assay was performed against MRSA USA 400 as described previously. MRSA USA400 cells in logarithmic growth phase (OD600˜1.00) were diluted to 6.03×10^6 colony-forming units (CFU/mL) and exposed to concentrations equivalent to 5×MIC (in triplicate) of 148, 149, 151, 155, 158 and vancomycin in Tryptic soy broth. Aliquots (100 μL) were collected from each treatment after 0, 2, 4, 6, 8, 12, and 24 hours of incubation at 37° C. and subsequently serially diluted in PBS. Bacteria were then transferred to Tryptic soy agar plates and incubated at 37° C. for 18-20 hours before viable CFU/mL was determined (FIG. 1).
DMSO (solvent for the compounds) served as a negative control and vancomycin served as a control drug. The error bars represent standard deviation values obtained from triplicate samples used for each compound/antibiotic studied.

[5] = system: VRSA 10; experiment: MIC, Gram-positive panel; assay type: cell-based; details: Staphylococcus aureus; VRSA 10; read-out: MIC
Method: (§1) Next, the spectrum of antibacterial activity of compounds 144, 148, 149, 151, 155, 158, and 187 was examined against a panel of clinically relevant Gram-positive bacterial pathogens including methicillin-resistant Staphylococcus aureus (MRSA), vancomycin-resistant Staphylococcus aureus (VRSA), vancomycin-resistant Enterococcus faecalis and Enterococcus faecium (VRE), and Streptococcus pneumoniae. Bacterial strains were grown aerobically overnight on tryptone soya agar plates at 37° C. Afterwards, a bacterial solution equivalent to 0.5 McFarland standard was prepared and diluted in cation-adjusted Mueller-Hinton broth (CAMHB) (for staphylococci). Enterococci and Streptococci were diluted in tryptone soya broth (TSB) to achieve a bacterial concentration of about 5×10^5 CFU/mL and seeded in 96-well plates. Compounds and control drugs were added in the first row of 96-well plates and serially diluted with media containing bacteria. Plates were then, incubated aerobically at 37° C. for 18-20 hours (except for S. pneumoniae, which was incubated at 37° C. in presence of 5% CO2 for 18-20 hours).

[6] = system: VRSA 12; experiment: MIC, Gram-positive panel; assay type: cell-based; details: Staphylococcus aureus; VRSA 12; read-out: MIC
Method: as §1

[7] = Staphylococcus aureus, read-out: MIC

Structure (SMILES) | total protease production [1] | CC50 at 2 h [2] | potency compared with control antibiotic [3] | MIC [3] | MIC [3, 7] | time required for complete eradication of the bacterial count [4] | reduction in the bacterial count after 6 hours ([4]; MRSA USA 400, after 6 hours) | reduction in the bacterial count after 6 hours (percent) ([4]; MRSA USA 400, after 6 hours) | MIC [5] | MIC [6]
C=C(C(=O)OC)C(c1ccc2ccccc2c1)C(O)c1cccc2ccccc12 (centres unmarked) [Compound 148] | 87% | > 64 µg/mL | potency comparable to vancomycin | 2 µg/mL (≈ 5.23 µM) | 1 to 2 µg/mL (≈ 2.61 to 5.23 µM) | 12 h | 3 log10 | 99.9% | 2 µg/mL (≈ 5.23 µM) | 2 µg/mL (≈ 5.23 µM)
C=C1C(=O)O[C@H](c2ccccc2)[C@@H]1c1cccc2ccccc12 [Compound 151] |  | > 64 µg/mL | potency similar to the oxazolidinone class of antimicrobial drug linezolid | 1 µg/mL (≈ 3.33 µM) | 1 to 2 µg/mL (≈ 3.33 to 6.66 µM) | 2 h |  |  | 2 µg/mL (≈ 6.66 µM) | 2 µg/mL (≈ 6.66 µM)
C=C1C(=O)O[C@H](c2cccc3ccccc23)[C@@H]1c1ccc2ccccc2c1 [Compound 155] | 65% |  | potency comparable to vancomycin | 2 µg/mL (≈ 5.71 µM) | 1 to 2 µg/mL (≈ 2.85 to 5.71 µM) | 2 h |  |  | 1 µg/mL (≈ 2.85 µM) | 2 µg/mL (≈ 5.71 µM)
C=C1C(=O)O[C@H](c2ccc3ccccc3c2)[C@@H]1c1ccc2ccccc2c1 [Compound 158] | 56% | > 64 µg/mL | potency comparable to vancomycin | 2 µg/mL (≈ 5.71 µM) | 1 to 2 µg/mL (≈ 2.85 to 5.71 µM) | 2 h |  |  | 1 µg/mL (≈ 2.85 µM) | 2 µg/mL (≈ 5.71 µM)
